# B1: OMP-18R5: monoclonal antibody that targets the Frizzled receptors to block association with WNT ligands (antibody, chains of the INN, looked up, V domains shown)
# VH: EVQLVESGGGLVQPGGSLRLSCAASGFTFSHYTLSWVRQAPGKGLEWVSVISGDGSYTYYADSVKGRFTISSDNSKNTLYLQMNSLRAEDTAVYYCARNFIKYVFANWGQGTLVTVSS
# VL: DIELTQPPSVSVAPGQTARISCSGDNIGSFYVHWYQQKPGQAPVLVIYDKSNRPSGIPERFSGSNSGNTATLTISGTQAEDEADYYCQSYANTLSLVFGGGTKLTVL
# B2: R-Spondin 1: specific Wnt activator (protein, UniProt Q2MKA7 21-263, looked up)
# R-spondin-1: SRGIKGKRQRRISAEGSQACAKGCELCSEVNGCLKCSPKLFILLERNDIRQVGVCLPSCPPGYFDARNPDMNKCIKCKIEHCEACFSHNFCTKCKEGLYLHKGRCYPACPEGSSAANGTMECSSPAQCEMSEWSPWGPCSKKQQLCGFRRGSEERTRRVLHAPVGDHAACSDTKETRRCTVRRVPCPEGQKRRKGGQGRRENANRNLARKESKEAGAGSRRRKGQQQQQQQGTVGPLTSAGPA
# Tests used:
# [1] = tested on: imatinib-resistant KBM5r cells (BCR-ABL1 T315I); assay: CD70, SP1, DNMT1 expression and viability in imatinib-resistant KBM5r cells; assay type: cell-based, human
# Experimental: Specifically, 5×10^4 KBM5r cells were transduced overnight at 37° C. and 5% CO2 with 2×10^5 infectious units of shSP1 or the respective control lentiviral particles having scrambled RNA (Santa Cruz Biotechnology Inc.) in the presence of 5 μg/ml polybrene (Sigma-Aldrich) according to the manufacturer's instructions. After 18 hours, medium was removed, and cells were cultured in medium supplemented with 1 μg/ml puromycin to select for stable expression of shSP1 or scrambled RNA.
# KBM5r cells (1×10^5) stably transduced with shSP1 (shSP1), or the respective control scrambled RNA lentiviral particles (scr), were then cultured for 72 hours in the presence of vehicle or ponatinib (po; 0.1 μM). Treated cells were tested for MFI of CD70 protein expression (FACS) (FIG. 1, q), CD70 (FIG. 1, r) and SP1 (Figure, 1 s) mRNA expression (qRT-PCR).
# In a first experiment, 1×10^5 KBM5r cells were cultured in the presence of vehicle, ponatinib (po, 0.1 μM), lithium chloride (li, […]), or both in combination (po/li) for 24 h (FIG. 2, A-C). In a second experiment, 1×10^5 KBM5r cells were cultured in the presence of vehicle, ponatinib (po, 0.1 μM), R-Spondin 1 (R, 10 ng/ml), or both in combination (po/R) for 72 h (FIG. 2, D-E).
# [2] = tested on: KBM5r cells; assay: miR-29 expression and anti-miR silencing in KBM5r cells (qRT-PCR); assay type: cell-based, human; settings: imatinib 1 μM, nilotinib 1 μM, ponatinib 0.1 μM; 72 h
# Experimental: MicroRNA concentrations were measured using TaqMan miRNA Assays for miR-29a, miR-29b, miR-29c, or RNU48 (Applied Biosystems), and qRT-PCR results were normalized to RNU48 expression.
# 48 h after transfection, cells were harvested and subjected to total RNA extraction and cDNA synthesis for qRT-PCR.
# [3] = tested on: CD70 promoter in KBM5r cells; assay: DNA methylation analysis of the CD70 promoter by bisulfite sequencing; assay type: cell-based, human; settings: ponatinib 0.1 μM or azacytidine 1 μM, vs vehicle
# Experimental: The methylation profile of the SP1 transcription factor binding sites within the KBM5r cell CD70 promoter was analyzed by bisulfite sequencing after treatment of KBM5r cells with either a control, ponatinib (0.1 μM) or azacytidine (1 μM).
# Bisulfite conversion of the isolated DNA samples from both KBM5 and KBM5r cells were assessed using the Epitect® Bisulfite Kit (Qiagen) according to the manufacturer's protocol. The promoter region covering binding sites for important transcription factors were selectively amplified using the following primers: forward primer (−227˜−205): 5′-[…]-3′ (SEQ ID NO.: 9); reverse primer (+14˜+35): 5′-[…]-3′(SEQ ID NO.: 10). For the amplification of bisulfite-treated genomic DNA (gDNA), the following PCR conditions were used: 1×: 95° C. for 10 min; 40×: 95° C. for 30 s, 58° C. for 40 s, 72° C. for 1 min; 1×72° C. for 5 min. The PCR cocktail was: 3 μl of DNA (of at least 10 ng/μL DNA for a final concentration of […]) in a 25 μl total volume using 0.5 pmol of each primer, 200 μM dNTPs, 0.2 U Hot Start Taq DNA polymerase, 1.5 mM MgCl2 and the buffer supplied with the enzyme. The amplified promoter region were gel-purified and subjected for fluorescent Sanger sequencing. The relative quantification of the methylated allele (C) versus unmethylated allele (T) was assessed by the QSVAnalyser software. […]
# [4] = tested on: β-catenin; settings: cited from earlier work
# [5] = tested on: DLD-1-cancer cells; settings: colorectal adenocarcinoma derived; cited from earlier work
# [6] = tested on: colon carcinoma cells; settings: cited from earlier work
# [7] = tested on: Xenopus embryos; settings: in vivo; cited from earlier work
# [8] = tested on: conditional APC mutant mice; settings: mouse, in vivo; cited from earlier work
# [9] = tested on: human CD34+ CML stem/progenitor cells; assay: Liquid culture of primary human CD34+ CML stem/progenitor cells: cell numbers, BrdU, viability; assay type: cell-based; settings: 7 days; anti-CD70 mAb 10 μg/ml, imatinib 1 μM, alone or combined
# [10] = tested on: CD34+ stem/progenitor cells from healthy donors; assay: Growth and colony formation of CD34+ stem/progenitor cells from BM of healthy donors; assay type: cell-based, human; settings: anti-CD70 mAb 10 μg/ml, imatinib 1 μM, alone or combined; 7 or 14 days
# [11] = tested on: human CD34+ CML stem/progenitor cells; assay: Murine xenograft CML model: human CML cells in BM of NSG mice; assay type: in vivo
# [12] = tested on: human CD34+ CML stem/progenitor cells; assay: Expression in human CML cells ex vivo from xenografted NSG mice; settings: imatinib 50 mg/kg daily, 2 weeks
# Text: (g-l) CD70 (g), SP1 (h), DNMT1 mRNA (i), and miR-29 expression (j-l) (qRT-PCR) in CD34^+ cells. (n-m) Correlation of CD70 expression with the expression of selected Wnt target genes RUNX1 (m) and WISP1 (n) in CD34^+ stem/progenitor cells from newly diagnosed chronic phase CML patients. Expression data are derived from a public repository for microarray data and are available under accession number E-MEXP-480 (EMBL EBI Arrayexpress). […] Statistics: (c-e), one-way ANOVA; (f-l), Student's t test; (m) and (n), Spearman correlation.
# (p-r) CD70 and CD27 expression were determined on primary human CML cells. […] After 2 weeks of treatment, mice were euthanized and CML cells were analyzed for the expression of CD70 and CD27 by FACS. […] (p-q) red lines, CD70 and CD27 antibodies; blue lines, respective isotype controls.
# [13] = in vivo; settings: NSG, mouse, plasma, oral, 50 mg/kg
# [14] = tested on: CD34+ stem/progenitor cells from newly diagnosed CML patients; assay: Expression in FACS-sorted CD34+ CML stem/progenitor cells cultured ex vivo; settings: imatinib 1 μM, 7 days
# [15] = tested on: SD-1 cells; assay: Chou-Talalay drug combination study, growth inhibition of SD-1 cells (cell numbers after 72 h)
# [16] = tested on: pancreatic tumor-initiating cells; settings: cited from earlier work
# [17] = tested on: xenograft models of breast, lung, pancreatic, and colon cancer; settings: in vivo; cited from earlier work
# [18] = 72 h, imatinib 1 μM, ponatinib 0.1 μM
molecule,measurement,setting,value
[Cl-].[Li+] [lithium chloride],"TKI-mediated changes in CD70, SP1, DNMT1 mRNA expression","[1]; lithium chloride 10 μM with ponatinib 0.1 μM, 24 h",restored TKI-mediated changes in gene expression
Cc1cn(-c2cc(NC(=O)c3ccc(C)c(Nc4nccc(-c5cccnc5)n4)c3)cc(C(F)(F)F)c2)cn1 [nilotinib],"miR-29a, miR-29b, miR-29c expression",[2],did not affect miR-29s
Cc1ccc(C(=O)Nc2ccc(CN3CCN(C)CC3)c(C(F)(F)F)c2)cc1C#Cc1cnc2cccnn12 [ponatinib],CD70 mRNA expression,[1]; [18],induced
same,Dnmt 1 mRNA expression,[1]; [18],down-regulated Dnmt1 mRNA
same,SP1 mRNA expression,[1]; [18],up-regulated SP1
same,CD70 protein expression (FACS),"[1]; 72 h, therapeutic concentration (imatinib 1 μM, ponatinib 0.1 μM)",induced CD70 protein expression
same,CD70 protein expression (MFI) early after treatment,"[1]; ponatinib 0.1 μM, 16 h",already up-regulated after 16 hours
same,cell death (Annexin-V/7-AAD FACS),"[1]; ponatinib 0.1 μM, 16 h",did not induce substantial cell death
same,CD70 expression in SP1 knockdown (shSP1) KBM5r cells,"[1]; ponatinib 0.1 μM, 72 h, vs scrambled control RNA cells",did not up-regulate CD70
same,"miR-29a, miR-29b, miR-29c expression",[2],down-regulation of all three miR-29s
same,CD70 promoter DNA methylation,[3],significantly reduced CD70 promoter DNA methylation
O=c1nc(-c2ccc(C(F)(F)F)cc2)[nH]c2c1CSCC2 [XAV939],WNT-stimulated accumulation of β-catenin,[4],blocks WNT-stimulated accumulation of β-catenin
same,growth of DLD-1 cancer cells,[5],inhibits growth
"COc1ccc(C2(CNC(=O)c3ccc(NC(=O)c4ccco4)cc3)CCOCC2)cc1 [JW55, N-(4-(((4-(4-methoxyphenyl)tetrahydro-2H-pyran-4-yl)methyl)carbamoyl)phenyl)furan-2-carboxamide]",canonical WNT signaling,[6]; cells with mutations in APC locus or an allele of β-catenin,inhibited canonical WNT signaling
same,AXIN2 and β-catenin levels,[6],"stabilization of AXIN2, a member of the β-catenin destruction complex, followed by increased degradation of β-catenin"
same,XWNT8-induced axis duplication,[7],reduced XWNT8-induced axis duplication
same,tamoxifen-induced polyposis formation,[8],reduced
Cc1ccc(NC(=O)c2ccc(CN3CCN(C)CC3)cc2)cc1Nc1nccc(-c2cccnc2)n1 [imatinib],"miR-29a, miR-29b, miR-29c expression",[2],did not affect miR-29s
same,cell proliferation (BrdU),[9],reduced cell proliferation
same,cell viability / cell death,[9],induced cell death
same,growth (cell numbers),[9],inhibited growth and proliferation
same,growth and colony formation of healthy donor CD34+ cells,[10],only marginally affected
same,frequencies and absolute numbers of CD45+CD33+ leukemia cells and CD34+ CML stem/progenitor cells in BM,"[11]; cells of patients 3, 4 and 5, 2 weeks of treatment",reduced cell frequencies and absolute numbers
same,eradication of CD34+ CML stem/progenitor cells in BM (NSG mice eradicated of treated),"[11]; patient 4 cells, 2 weeks of treatment",neither imatinib nor anti-CD70 mAb treatment alone eliminated all the CD34+ CML cells
same,CD45+CD33+ CML myeloid cell frequencies and absolute numbers in BM,"[11]; patient 4 cells, imatinib 50 mg/kg daily p.o., anti-CD70 mAb 10 mg/kg i.p. every 3rd day, 2 weeks",significantly reduced
same,CD27 expression,[12],remained unchanged
same,CD70 expression on CD34+ CML stem/progenitor cells,[12],specifically increased CD70 expression on CD34+ CML stem/progenitor cells
same,"DNMT1 and miR-29a, miR-29b, miR-29c expression in CD34+ CML stem/progenitor cells",[12],"decreased the expression of DNMT1 and miR-29a, miR-29b, and miR-29c"
same,SP1 expression in CD34+ CML stem/progenitor cells,[12],up-regulation of SP1
same,concentration at 2 weeks,[13],~1000 nM
same,CD70 protein expression,[14],increased CD70 protein expression
same,Dnmt 1 mRNA expression,[14],down-regulated
same,Dnmt3a mRNA expression,[14],down-regulated
same,SP1 mRNA expression,[14],increased
same,"Fa (fraction affected), imatinib",[15]; imatinib 0.02 μM,0.001
same,"Fa (fraction affected), imatinib",[15]; imatinib 0.04 μM,0.040
same,"Fa (fraction affected), imatinib",[15]; imatinib 0.08 μM,0.149
same,"Fa (fraction affected), imatinib",[15]; imatinib 0.16 μM,0.201
same,"Fa (fraction affected), imatinib",[15]; imatinib 0.32 μM,0.243
same,"Fa (fraction affected), imatinib",[15]; imatinib 0.64 μM,0.351
same,"Fa (fraction affected), imatinib",[15]; imatinib 1.28 μM,0.432
same,"Fa (fraction affected), imatinib",[15]; imatinib 2.55 μM,0.527
same,"Fa (fraction affected), imatinib",[15]; imatinib 5.10 μM,0.689
same,"Fa (fraction affected), imatinib",[15]; imatinib 10.20 μM,0.791
B1,capabilities of pancreatic tumor-initiating cells,[16],potently block the capabilities of pancreatic tumor-initiating cells
same,interaction with standard-of-care treatment,[17],synergized with standard-of-care treatment
same,tumor growth,[17],significant inhibition of tumor growth
B2,"TKI-mediated changes in CD70, SP1, DNMT1 mRNA expression","[1]; R-Spondin 1 10 ng/ml with ponatinib 0.1 μM, 72 h",restored TKI-mediated changes in gene expression

# Reference: patent US10391168B1, “Anti-CD70 combination therapy” (University of Bern, priority 2014, dated 2019)
